Experimental data: patent publication US8673306B2, “Compositions and methods of use for antibodies of dickkopf-1” (Novartis AG, priority 2006, dated 2014)
Entries after “also recorded” stand apart in the source; their conditions may differ.

Columns and labels:
[1] = test system: N-linked deglycosylated rhDKK1; test: ELISA binding to N-linked deglycosylated rhDKK1; set-up: species or system human; settings: PNGase F treated rhDKK1, relative to WT
[2] = target: T1, rhDKK1 (recombinant human DKK1) (Homo sapiens, UniProt O94907); test: Biacore T100 SPR of captured antibody with rhDKK1; format: binding; settings: WT DKK1
T1 construct: host or cells: HEK / HEK293
T1 sequence (O94907 32-266): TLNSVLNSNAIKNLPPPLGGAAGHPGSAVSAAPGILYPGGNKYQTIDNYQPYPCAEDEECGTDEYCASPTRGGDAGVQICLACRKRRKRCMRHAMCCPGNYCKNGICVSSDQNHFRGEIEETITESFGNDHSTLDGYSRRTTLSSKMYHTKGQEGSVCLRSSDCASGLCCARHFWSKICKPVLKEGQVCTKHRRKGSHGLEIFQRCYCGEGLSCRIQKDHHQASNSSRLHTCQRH
Method: FIG. 6. METHODS: The binding affinity and kinetics of lead candidates and rhDKK1 (recombinant human DKK1) (Batch BTP7757) are measured using surface plasmon resonance with a Biacore T100 (Biacore, Uppsala, Sweden) instrument containing a CM5 (S) sensor chip (Cat#BR-1006-68). Anti-Human IgG1 Fc (Jackson Immuno Research, Cat#109-006-098) is immobilized onto each flow cell, followed by capture of a lead candidate at an expected capture of about 100 RU. Finally, six concentrations of DKK1 (range 0.195-6.25 nM), with one repeat concentration, is run over the chip. Flow cells are activated for binding of DKK1 for 240 seconds, and disassociation is followed for 30 minutes. The normalized data (background subtracted) are fit to a 1:1 binding with mass transport model using Kinetics analysis in BIA evaluation 1.0 software. This experiment is carried out in triplicate, and data presented are the average of these three experiments with standard deviation.

DKK1 (N-degly) = test: Biacore T100 SPR with N-DEGLY DKK1; format: binding, human
DKK3 = DKK3 (Homo sapiens, UniProt Q9UBP4); test: Biacore T100 binding to human DKK3
Sequence of DKK3 (Q9UBP4 22-350): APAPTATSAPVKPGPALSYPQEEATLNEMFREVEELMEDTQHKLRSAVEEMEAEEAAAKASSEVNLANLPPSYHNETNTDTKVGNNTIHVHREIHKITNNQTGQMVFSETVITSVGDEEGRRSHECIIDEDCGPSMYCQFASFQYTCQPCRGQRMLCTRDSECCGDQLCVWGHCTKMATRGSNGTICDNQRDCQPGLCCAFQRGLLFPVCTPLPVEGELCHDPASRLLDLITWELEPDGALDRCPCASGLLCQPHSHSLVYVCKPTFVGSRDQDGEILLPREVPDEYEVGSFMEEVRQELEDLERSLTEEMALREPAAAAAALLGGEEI

DKK2 = target: T2, DKK2 (Homo sapiens, UniProt Q9UBU2); test: Binding to human DKK2 (preliminary immunoprecipitation)
T2 sequence (Q9UBU2 34-259): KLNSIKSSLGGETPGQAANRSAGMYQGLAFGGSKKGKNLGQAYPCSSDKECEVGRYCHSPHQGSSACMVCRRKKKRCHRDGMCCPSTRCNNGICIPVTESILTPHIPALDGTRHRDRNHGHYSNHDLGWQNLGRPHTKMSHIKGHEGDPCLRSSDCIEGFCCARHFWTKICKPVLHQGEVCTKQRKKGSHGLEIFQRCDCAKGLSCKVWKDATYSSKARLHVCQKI
From the text: Of note, neither DKK2 nor DKK4 conserve the Asparagine residue that is predicted to be targeted for glycosylation in the Cys-2 domain of DKK1.

[3] = target: T3, DKK1/LRP6 binding on cell surface (Homo sapiens, UniProt O94907); test: DKK1-GFP binding to LRP6 on HEK293T cell surface, fluorescence microscopy; format: cell-based; settings: HEK293T transfected with LRP6 and MESD
T3 construct: made in house; LRP6 and MESD transiently transfected into HEK293T
T3 sequence (O94907 32-266): T1 sequence (O94907 32-266)
Method: However, upon co-transfection of LRP6 with a surface trafficking chaperone protein, MESD, GFP-tagged DKK1 can be detected on the cell surface, illustrating the specific nature of the DKK1/LRP6 interaction.
The ability of MOR04910 to inhibit DKK1/LRP6 binding on cell surface is measured by fluorescence microscopy. HEK293T cells are either mock transfected and transiently transfected with plasmids encoding LRP6 and MESD. Cells are incubated with DKK1-GFP conditioned medium together with anti-lysozyme FAb or anti-DKK1 FAb MOR04910 for 1 hour at 37° C., and examined by fluorescence microscopy. GFP fluorescence reflects DKK1-GFP binding to overexpressed LRP6 on the plasma membrane.

C3H10T1/2 (10T1/2) cells = test: Wnt-mediated osteoblast differentiation / alkaline phosphatase secretion of C3H10T1/2 cells; format: cell-based, mouse; settings: Wnt3A conditioned medium
From the text: Upon osteoblast differentiation the 10T1/2 cells secrete alkaline phosphatase (AP), a phenomena which can be inhibited by DKK1.

tumor cell lines = test: Survival and proliferation of cancer cell lines (Cell Titer Glo); format: cell-based; settings: 100 μg/ml, three days, three serum concentrations
Method: This assay is carried out in three different serum concentrations (serum free, minimal growth, and complete growth). […] Cell line supernants are analyzed for DKK1 expression by ELISA.

PC3M2AC6 xenografts = test: Intratibial growth of PC3M2AC6 xenografts in mice; format: in vivo, mouse; settings: i.v., 3 times a week for 2 weeks
Method: An osteolytic prostate tumor model is adapted from a method by [Kim 2003]. A variant of the osteolytic prostate tumor cell line (PC3M) that stably expresses luciferase (PC3M2AC6) is injected into the tibia of mice. The growth of the tumor is monitored by luciferase while changes in bone are monitored by micro-computerized tomography (micro-CT) and histology.
Control IgG is administered i.v., at 200 μg/mouse/day, q.d., 3 times a week for 2 weeks. Vehicle control (PBS) is administered i.v., q.d., 3 times a week for 2 weeks. Final efficacy data and body weight change are calculated after treatment.

[4] = test system: subcutaneous PC3M2AC6 xenografts; test: Subcutaneous PC3M2AC6 xenografts in mice; settings: mouse, in vivo, sc
[5] = test system: tumor and sham implanted tibias; test: Bone effects in tumor-induced osteolytic model (micro-CT, histology); format: in vivo, mouse
Method: An osteolytic prostate tumor model is adapted from a method by [Kim 2003]. A variant of the osteolytic prostate tumor cell line (PC3M) that stably expresses luciferase (PC3M2AC6) is injected into the tibia of mice. The growth of the tumor is monitored by luciferase while changes in bone are monitored by micro-computerized tomography (micro-CT) and histology. […] Cortical damage is scored from 0=no damage to 3=severe damage. FIG. 12B. Cortical damage in tumor-implanted tibias is manually scored by microCT analysis that are blinded with respect to the study groups. No cortical damage is observed in any of the sham implanted legs. Methods: Female nude mice at age of 12 weeks old are implanted intatibially with 2×10^5 PC-3M2AC6 cells in the left tibia and sham-injection in the right tibia. Treatments started on day 5 post implantation. […] Vehicle (PBS) control is also administered q.d., 3 times a week for 2 weeks. Animals are scanned at day 7, 14, and 18 post tumor implantation using the μ-CT VivaCT40 Scanner (SCANCO, Switzerland). Trabecular bone density (BV/TV) is analyzed as described in methods. An asterisks (*) indicates statistical significant difference from both vehicle and IgG controls (n=12) at the same time point at p<0.05. In FIG. 13, to determine the bone mass, the secondary spongiosa of the tibia is imaged with the Zeiss Imager Z.1 and Axiovision software based on Giemsa stain. The readout is based on the percent calcified bone in the entire field. Every column represents the mean and standard deviation of the stated number of animals. In the PBS, IgG, and anti-DKK1/4 antibody treated groups, only animals with tumor are analyzed. […] Statistic: Dunnett Multiple Comparisons Test One-Way ANOVA. Left legs or right legs compared to the respective leg in the PBS group p<0.05*, p<0.01**, p>0.05 n.s. […] Trabecular bone density (BV/TV) is analyzed as described in methods. * indicates statistical significant difference from all controls including, vehicle, IgG, drill only, and naïve animals at the same time point at p<0.05.

Percent Binding, DKK1 (dyglycosylated) [1]: 12-18%
Ka [2]: 7.449e+06 M⁻¹ s⁻¹
Kd [2]: 2.319e-05 s⁻¹
Kd (DKK1 (N-degly)): 0.0003071 s⁻¹
binding to DKK3 (DKK3): does not bind DKK3
Substance: anti-DKK1/4 antibody: neutralizing anti-DKK1/4 antibody sharing the same variable regions as MOR04910 (4910 chains SEQ ID NO: 111/115, BHQ880)
Ka (DKK1 (N-degly)): 1.424e+06 M⁻¹ s⁻¹
binding to DKK2 (DKK2): does not specifically bind DKK2; also recorded: no significant binding to DKK2
inhibition of DKK1/LRP6 binding on cell surface [3]: blocks DKK1 interactions with LRP6 on cell surfaces
reversal of DKK1 inhibited alkaline phosphatase secretion (C3H10T1/2 (10T1/2) cells): blocks DKK1 suppression of 10T1/2 differentiation
effect on survival and proliferation of cancer cell lines (tumor cell lines): No significant changes
effect on intratibial tumor growth (PC3M2AC6 xenografts): trended toward inhibition of tumor growth
effect on subcutaneous xenograft growth [4]: non-significant trend toward inhibition
anti-osteolytic activity compared with Zometa ([5]; mouse, in vivo): equivalent anti-osteolytic activity as Zometa
tumor-induced cortical bone damage ([5]; mouse, in vivo): inhibits tumor-induced cortical bone damage
production of bone / bone volume ([5]; tumor and sham implanted tibias): increases the production of bone in both tumor and sham implanted tibias
